Source: patent publication US20170152258A9, “Substituted Pyridopyrazines as Syk Inhibitors” (HUTCHISON MEDIPHARMA LIMITED, priority 2012, published 2017)
pIC50: −log10 of the molar value.

What was measured:
RBL-2H3 cells = assay: IgE-induced Beta-hexosaminidase secretion in RBL-2H3 cells; type: cell-based; settings: DNP-BSA stimulation
Method: For the determination of IgE-induced Beta-hexosaminidase secretion, RBL-2H3 cells (SIBS) are seeded in 96 well plates at 4×10^4 cells per well and incubated in MEM media with 15% FBS and Glutamine ([…]) for 4 hours and sensitized with 0.5 ug/ml of SPE-7 overnight. Cells are washed 3 times with Tyrode's buffer and incubated in the presence or absence of various concentrations of the testing compound for 20 min at 37° C., 5% CO2. Cells are stimulated by adding 10 uL of DNP-BSA solution (150 ng/mL) to each well and incubating for 45 minutes at 37° C., 5% CO2. Then, 45 μL of the supernatant is taken and incubated with 100 μL of 1 mM 4-Nitrophenyl N-acetyl-β-D-glucosaminide (Sigma, Cat. No. N9376), which is diluted in 0.05 M citrate buffer (pH 4.5), for 1.5 hr at 37° C. The reactions are quenched by adding 185 μL of 0.05 M sodium carbonate buffer (pH 10.0). Plates are read at 405 nm on Multiskan (MK 3).

Syk kinase = Syk kinase (Homo sapiens, UniProt P43405); assay: SYK Enzymatic Assay (Z-LYTE Tyr 2 peptide); type: biochemical; settings: 8 concentrations 1 μM down to 0.0003 μM
Method: Syk kinase assay are performed in vitro using Kit-Tyr 2 Peptide (Invitrogen, Cat. No. PV3191) and in a 384-well assay plate. […] The 384-well assay plate (Corning, Cat. No. 3575) is mixed and incubated at room temperature for 1 hour. 10 μL of the Development Solution (prepared by diluting Development Reagent A (Cat. No. PV3297) to 1/32 with Development Buffer (Cat. No. PV3127)) is then added to each well, mixed and incubated at room temperature for another 1 hour. The reactions are then stopped by adding 10 μL of the Stop Reagent (Invitrogen, Cat. No. PV3094), and the plate is read with Wallac 1420 VICTOR^3 Multilabel Counter (PerkinElmer™) at 445 nm and 520 nm fluorescence. All compounds are tested at 8 concentrations (1 μM down to 0.0003 μM) using a 1:3 serial dilution scheme.

[1] = Rattus norvegicus, RBL-2H3, IgE-induced Beta-hexosaminidase secretion
[2] = IgE-induced Beta-hexosaminidase secretion

Compound	pIC50 (RBL-2H3 cells; [1])	pIC50 (Syk kinase)	pIC50 (RBL-2H3 cells; [2])
CN1CCCc2cc(-c3cc4nccnc4c(OC[C@@H]4CN(S(C)(=O)=O)CCO4)n3)ccc21 [Compound 207]	8.10	7.96	7.85
CS(=O)(=O)N1CCO[C@H](COc2nc(-c3ccc4[nH]ncc4c3)cc3nccnc23)C1 [Compound 203]	6.97	7.22	
CNc1ccc(-c2cc3nccnc3c(OC[C@@H]3CN(S(C)(=O)=O)CCO3)n2)cc1F [Compound 52]	7.33	7.38	
CN(C)c1ccc(-c2cc3nccnc3c(OC[C@@H]3CN(S(=O)(=O)c4cccnc4)CCO3)n2)cc1 [Compound 92]	7.14	7.12	
COc1ccc(-c2cc3nccnc3c(O[C@@H]3CCOC3)n2)cc1OC [Compound 150]	7.01	7.04	
CN(C)c1ccc(-c2cc3nccnc3c(O[C@@H]3CCOC3)n2)cc1Cl [Compound 154]	7.11	7.37	
CC1(C)OCCc2cc(-c3cc4nccnc4c(OC[C@@H]4CN(S(C)(=O)=O)CCO4)n3)ccc21 [Compound 302]	7.52	8.05	
CS(=O)(=O)N1CCC(c2ccc(-c3cc4nccnc4c(O[C@@H]4CCOC4)n3)cc2)CC1 [Compound 124]	7.35	7.48	
Cc1cc(-c2cc3nccnc3c(OC[C@@H]3CN(S(C)(=O)=O)CCO3)n2)ccc1N(C)C [Compound 134]	7.82	8.52	
Cn1ccc2ccc(-c3cc4nccnc4c(OC[C@@H]4CN(S(C)(=O)=O)CCO4)n3)cc21 [Compound 120]	7.39	7.21	
c1cnc2c(O[C@@H]3CCOC3)nc(-c3ccc(C4CCNCC4)cc3)cc2n1 [Compound 190]	6.19	7.30	

Now from value to molecule:

pIC50 (RBL-2H3 cells; [1])	pIC50 (Syk kinase)	pIC50 (RBL-2H3 cells; [2])	Compound
6.93	7.37		CS(=O)(=O)N1CCO[C@H](COc2nc(-c3ccc(C4(O)CCOCC4)cc3)cc3nccnc23)C1 [Compound 314]
6.96	7.20		CC(C)C(=O)N1CCO[C@H](COc2nc(-c3ccc(N(C)C)cc3)cc3nccnc23)C1 [Compound 68]
< 5.48	7.14		CC(=O)N1CC(c2ccc(-c3cc4nccnc4c(OC[C@@H]4CN(C(N)=O)CCO4)n3)cc2)C1 [Cmpd 296]
7.31	7.51	7.15	CN(C)c1ccc(-c2cc3nccnc3c(OC[C@@H]3CN(C(=O)[C@H]4CCOC4)CCO3)n2)cc1 [Compound 95]
7.09	7.01		CC(=O)N1CCO[C@H](COc2nc(-c3ccc(NC(C)C)cc3)cc3nccnc23)C1 [Compound 141]
7.25	7.77		COC1CCN(c2ccc(-c3cc4nccnc4c(OC[C@@H]4CN(S(C)(=O)=O)CCO4)n3)cc2)CC1 [Compound 31]
6.57	7.10		CNS(=O)(=O)N1CCOC(COc2nc(-c3ccc(C(C)(C)O)cc3)cc3nccnc23)C1 (centres unmarked) [Compound 262]
7.06	7.24		CC(=O)N1CCO[C@H](COc2nc(-c3ccc4c(c3)COC4(C)C)cc3nccnc23)C1 [Compound 297]
6.80	7.03		CNc1ccc(-c2cc3nccnc3c(OC[C@@H]3CN(C(=O)[C@H]4CCCO4)CCO3)n2)cc1 [Compound 51]
6.98	7.08		CCc1ccc(-c2cc3nccnc3c(OC[C@@H]3CN(C(=O)NC)CCO3)n2)cc1 [Compound 222]
6.95	7.32		CN1CCC(c2ccc(-c3cc4nccnc4c(OC[C@@H]4CN(S(C)(=O)=O)CCO4)n3)cc2)CC1 [Compound 8]
6.64	7.30		CNC(=O)COc1ccc(-c2cc3nccnc3c(OC[C@@H]3CN(S(C)(=O)=O)CCO3)n2)cc1 [Compound 129]
6.67	7.00		CN(C)c1ccc(-c2cc3nccnc3c(OC[C@@H]3CN(C(=O)CC4CC4)CCO3)n2)cc1 [Compound 70]
6.43	7.30	6.33	N#CC1(c2ccc(-c3cc4nccnc4c(OC[C@@H]4CN(C(N)=O)CCO4)n3)cc2)CCC1 [Compound 290]
